Laboratory results published in PMC5681660, “Reduced hepatitis B and D viral entry using clinically applied drugs as novel inhibitors of the bile acid transporter NTCP” (Scientific Reports, 2017).
Where a name gives a salt, the structure may show the parent alone. Read-outs that look alike come from different tables or passages of the source.

What was measured:
[1] = target: T1, human NTCP (Homo sapiens, UniProt Q14973); experiment: Screening taurocholate uptake assay (96-well, [14C]taurocholate, 10 µM drug)
T1 sequence (Q14973 1-349): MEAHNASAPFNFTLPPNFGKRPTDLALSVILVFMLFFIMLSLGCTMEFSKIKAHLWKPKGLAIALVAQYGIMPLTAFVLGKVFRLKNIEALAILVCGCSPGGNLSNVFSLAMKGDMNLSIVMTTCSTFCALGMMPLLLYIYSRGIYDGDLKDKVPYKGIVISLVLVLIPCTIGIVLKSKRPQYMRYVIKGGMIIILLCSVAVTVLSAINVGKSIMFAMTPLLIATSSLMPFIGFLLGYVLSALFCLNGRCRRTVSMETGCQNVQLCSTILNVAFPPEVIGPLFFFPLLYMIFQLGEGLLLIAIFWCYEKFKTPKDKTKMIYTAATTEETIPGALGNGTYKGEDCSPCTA

[2] = target: T1, human NTCP; experiment: Screening fluorescent competitive Myrcludex B-FITC binding assay (96-well, 10 µM drug)
[3] = combined ranking from functional and binding screening assays
[4] = screen, 10 µM drug, taurocholate uptake
[5] = screen, 10 µM drug, Myrcludex B-FITC binding
[6] = Prestwick library screen, taurocholate uptake, 10 µM drug
[7] = ranking score beside the functional and binding assay B-scores of the screen
[8] = Prestwick library screen, Myrcludex B-FITC binding, 10 µM drug
[9] = Prestwick library screen, 10 µM drug, B-score of taurocholate uptake
[10] = combined ranking from functional and binding assay B-scores
[11] = Prestwick library screen, 10 µM drug, B-score of Myrcludex B-FITC binding

Compound | Ranking score [1, 3] | B-score functional assay [1, 4] | B-score binding assay [2, 5] | B-score functional assay [1, 9] | Ranking score [1, 10] | B-score binding assay [2, 11] | other results
CNCCC(Oc1ccccc1OC)c1ccccc1 (stereo not drawn) [Nisoxetine hydrochloride] |  |  |  |  |  |  | B-score functional assay [1]: -0.598; Ranking score [1]: 324.321; B-score binding assay [2]: -0.726
CN[C@H]1CC[C@@H](c2ccc(Cl)c(Cl)c2)c2ccccc21 [Sertraline] | 426.035 | 0.805 | -1.357 |  |  |  | 
CN1CCC(=C2c3ccccc3CCc3sccc32)CC1.O=C(O)CC(O)C(=O)O [Pizotifen malate] |  |  |  |  |  |  | B-score functional assay [1, 6]: 0.156; Ranking score [1, 7]: 745.131; B-score binding assay [2, 8]: 0.057
Nc1ccc(S(=O)(=O)Nc2ncccn2)cc1 [Sulfadiazine] |  |  |  | 0.878 | 1074.81 | 1.389 | 
CN1CCC2(C)c3cc(O)ccc3N(C)C12.O=C(O)/C=C/C(=O)O (single isomer, unassigned; (-)) [(-)-Eseroline fumarate salt] |  |  |  |  |  |  | B-score functional assay [1, 6]: 0.19; Ranking score [1, 7]: 803.481; B-score binding assay [2, 8]: 0.233
O=c1n(CCCN2CCN(c3cccc(Cl)c3)CC2)nc2ccccn12 [Trazodone hydrochloride] |  |  |  |  |  |  | B-score functional assay [1, 6]: 0.169; Ranking score [1, 7]: 707.824; B-score binding assay [2, 8]: -0.001
C=C(CC)C(=O)c1ccc(OCC(=O)O)c(Cl)c1Cl [Ethacrynic acid] |  |  |  | 0.935 | 1005.99 | 0.672 | 
CC(C)NC[C@@H](O)c1ccc(O)c(O)c1.O=C(O)C(O)C(O)C(=O)O [(+)-Isoproterenol (+)-bitartrate salt] |  |  |  |  |  |  | B-score functional assay [1, 6]: 2.072; Ranking score [1, 7]: 708.011; B-score binding assay [2, 8]: -0.368
O=C(NCCNCC(O)COc1ccc(O)cc1)N1CCOCC1 (stereo not drawn) [Xamoterol hemifumarate] |  |  |  |  |  |  | B-score functional assay [1]: 0.875; Ranking score [1]: 564.879; B-score binding assay [2]: -0.721
Cc1ncc(CO)c(CO)c1O [Pyridoxine hydrochloride] |  |  |  | 0.632 | 1004.23 | 1.062 | 
Cc1[nH]c(=O)c(C#N)cc1-c1ccncc1 [Milrinone] |  |  |  | 0.094 | 877.639 | 0.945 | 
c1ccc2[nH]c(-c3cscn3)nc2c1 [Tiabendazole] |  |  |  | 0.849 | 925.084 | 0.306 | 
Cc1noc(NS(=O)(=O)c2ccc(N)cc2)c1C [Sulfisoxazole] |  |  |  |  |  |  | B-score functional assay [1, 6]: -0.089; Ranking score [1, 7]: 663.513; B-score binding assay [2, 8]: 0.207
CC(COc1ccccc1)NC(C)C(O)c1ccc(O)cc1 (stereo not drawn) [Isoxsuprine hydrochloride] |  |  |  | 0.459 | 888.476 | 0.408 | 
Cc1oncc1C(=O)Nc1ccc(C(F)(F)F)cc1 [Leflunomide] |  |  |  |  |  |  | B-score functional assay [1, 6]: 0.376; Ranking score [1, 7]: 727.533; B-score binding assay [2, 8]: -0.027
CC(=O)OCC(=O)[C@H]1CC[C@H]2[C@@H]3CC[C@H]4C[C@H](O)CC[C@]4(C)[C@H]3C(=O)C[C@]12C [Alfadolone acetate] |  |  |  | 0.626 | 1074.24 | 2.253 | 
O=C(O)c1cccnc1Nc1cccc(C(F)(F)F)c1 [Niflumic acid] |  |  |  |  |  |  | B-score functional assay [1, 6]: 0.166; Ranking score [1, 7]: 675.036; B-score binding assay [2, 8]: -0.054
CCOC(=O)[C@H](CCc1ccccc1)N[C@@H](C)C(=O)N1Cc2ccccc2C[C@H]1C(=O)O [Quinapril HCl] |  |  |  | 2.971 | 1103.9 | 0.741 | 
CC(C)(C)C(=O)OCOC(=O)[C@@H]1N2C(=O)[C@@H](/N=C/N3CCCCCC3)[C@H]2SC1(C)C [Pivmecillinam hydrochloride] |  |  |  |  |  |  | B-score functional assay [1, 6]: -0.103; Ranking score [1, 7]: 729.338; B-score binding assay [2, 8]: 0.838

Compound | Ranking score [1, 3] | B-score functional assay [1, 4] | B-score binding assay [2, 5] | B-score functional assay [1, 9] | Ranking score [1, 10] | B-score binding assay [2, 11] | other results
NCC1(CC(=O)O)CCCCC1 [Gabapentin] | 428.131 | -0.982 | 0.068 |  |  |  | 
COC(=O)Nc1nc2ccc([S+]([O-])c3ccccc3)cc2[nH]1 (stereo not drawn) [Oxfendazol] |  |  |  | 0.699 | 1042.44 | 1.363 | 
Cc1ccc(C)c(OCCCC(C)(C)C(=O)O)c1 [Gemfibrozil] | 289.348 | 0.85 | -2.286 |  |  |  | 
COc1ccc([C@@H]2Sc3ccccc3N(CCN(C)C)C(=O)[C@@H]2OC(C)=O)cc1 [Diltiazem hydrochloride] | 351.949 | -0.552 | -0.608 |  |  |  | 
CC1CC(OC(=O)C(O)c2ccccc2)CC(C)(C)N1C (stereo not drawn) [Eucatropine hydrochloride] |  |  |  | 0.117 | 950.91 | 1.847 | 
NCCCC(O)(P(=O)(O)O)P(=O)(O)O [Alendronate sodium] | 453.598 | 0.279 | -0.968 |  |  |  | 
CSc1ccc2c(c1)C(N1CCN(C)CC1)Cc1ccccc1S2.O=C(O)/C=C\C(=O)O (stereo not drawn) [Methiothepin maleate] | 441.5 | 4.841 | -1.545 |  |  |  | 
Cc1cccc(C)c1NC(=O)C(C)N (stereo not drawn) [Tocainide hydrochloride] |  |  |  | 1.054 | 1036.23 | 0.83 | 
NC(=O)C(c1ccccc1)(c1ccccc1)[C@@H]1CCN(CCc2ccc3c(c2)CCO3)C1 [Darifenacin hydrobromide] |  |  |  |  |  |  | B-score functional assay [1]: 2.058; Ranking score [1]: 899.12; B-score binding assay [2]: 0.023
S=c1[nH]cnc2nc[nH]c12 [Mercaptopurine] | 451.727 | -0.084 | -0.534 |  |  |  | 
CCN(CC)CCOC(=O)C(c1ccccc1)c1ccccc1 [Adiphenine hydrochloride] | 440.174 | -0.012 | -0.701 |  |  |  | 
O=C1C(O)=C([C@H]2CC[C@H](c3ccc(Cl)cc3)CC2)C(=O)c2ccccc21 [Atovaquone] |  |  |  |  |  |  | B-score functional assay [1, 6]: -0.283; Ranking score [1, 7]: 659.659; B-score binding assay [2, 8]: 0.68
CCN1CCCC1CNC(=O)c1cc(S(=O)(=O)CC)c(N)cc1OC (stereo not drawn) [Amisulpride] |  |  |  | 0.107 | 873.097 | 0.863 | 
O=C(CCCN1CCC(n2c(O)nc3ccccc32)CC1)c1ccc(F)cc1 [Benperidol] | 422.659 | 0.351 | -1.201 |  |  |  | 
O=C(O)Cc1sc(-c2ccccc2)nc1-c1ccc(Cl)cc1 [Fentiazac] | 402.269 | -1.501 | 0.475 |  |  |  | 
C=CCC1(CC(C)C)C(=O)NC(=O)NC1=O [Butalbital] |  |  |  |  |  |  | B-score functional assay [1]: -0.027; Ranking score [1]: 849.583; B-score binding assay [2]: 2.017
C[N+]1(C)[C@@H]2CC[C@H]1C[C@@H](OC(=O)C(CO)c1ccccc1)C2 (stereo partly drawn) [Methylatropine nitrate] | 357.004 | -0.076 | -1.066 |  |  |  | 
CC(C)(C)NC[C@H](O)c1ccc(O)c(CO)c1 [Levalbuterol hydrochloride] |  |  |  | 0.334 | 962.353 | 1.242 | 
CN1C(=O)CC(c2ccccc2)C1=O (stereo not drawn) [Phensuximide] | 401.836 | 0.043 | -1.044 |  |  |  | 
